One data set deals with C3PV. Briefly: MTT cell viability assay on normal fibroblasts C3PV. The data set is classed as cell-based, human. The note with it: 24 h treatment, triplicates, read-out: IC50 (µM ± SD) C3PV. How it is done:
(§1) The primary human healthy fibroblast C3PV cell line was grown in a culture medium containing 50% Dulbecco Modified Medium (DMEM) and 50% Ham’s F10 supplemented with 10% Fetal Bovine Serum (FBS). […] To all growing media were added 1% Pen/Strep and 1% Glutamine.
To study the effect of artemisinin derivatives on cell viability, MTT assay was performed. Briefly, C3PV, WM115, and WM266 cell lines were seeded in 96-well plates (3000 cells/well in 100 μL of medium) 24 h before treatment and incubated overnight to allow for cell adherence. […] The analyses of cell viability were performed at the end of the treatment. Triplicates were made in all experiments. After 24 h of treatment with newly synthesized compounds, the culture medium was replaced with a solution containing 0.5 mg/mL of MTT. After 3 h of incubation in an incubator, the medium was removed, and a lysis solution (10% SDS, 0.6% acetic acid in DMSO) was added to dissolve the formazan crystals. Optical density measurements were performed with a microplate reader EPOCH/2 (Biotek) with 630 nm (background) and a 570 nm filters.
(§2) The IC50 values were determined via non-linear regression, using the GraphPad Prism software package version 8 (GraphPad Software, San Diego, CA, USA). Results were expressed as means of IC50 values ± SD. The TSI values were calculated using the following formula: […]
On the technique in general: Formazan colour is commonly taken as a measure of viable cells.

A further data set relates to WM115. The experiment in a line: MTT cell viability assay on primary melanoma cell line WM115. The data set is classed as cell-based, human. The note with it: for IC50: primary melanoma WM115, MTT, 24 h treatment, triplicates, read-out: IC50 (µM ± SD) WM115; for TSI WM115: tumor selectivity index = IC50 on C3PV / IC50 on WM115. The method, then:
as §1
(§3) To study the effect of artemisinin derivatives on cell viability, MTT assay was performed. Briefly, C3PV, WM115, and WM266 cell lines were seeded in 96-well plates (3000 cells/well in 100 μL of medium) 24 h before treatment and incubated overnight to allow for cell adherence. Afterward, the medium was replaced with a fresh one containing the appropriate dose of newly synthesized compounds (doses ranging from 0.01 to 1 μM were used for 24 h). The analyses of cell viability were performed at the end of the treatment. Triplicates were made in all experiments. After 24 h of treatment with newly synthesized compounds, the culture medium was replaced with a solution containing 0.5 mg/mL of MTT. After 3 h of incubation in an incubator, the medium was removed, and a lysis solution (10% SDS, 0.6% acetic acid in DMSO) was added to dissolve the formazan crystals. Optical density measurements were performed with a microplate reader EPOCH/2 (Biotek) with 630 nm (background) and a 570 nm filters.
as §2

The test system of data set [1] is WM266. Briefly: MTT cell viability assay on metastatic melanoma cell line WM266. Conditions: for IC50: Homo sapiens; for TSI WM266: tumor selectivity index = IC50 on C3PV / IC50 on WM266. It counts as cell-based, human. How it is done: as §1, §3, §2
The subject of data set [2] is WM266. The experiment in a line: Cell viability assay in the presence or absence of DFO on WM266. The data set is classed as cell-based. The note with it: Homo sapiens, treatment time 48 h. The source says:
To obtain information about the mode of action of compounds 9c, 9f, 10b, and 10f, we repeated the cell viability assays on the metastatic cancer line WM266 in the presence of the Fe^2+ chelating agent deferoxamine (DFO). As mentioned above, Fe^2+ ions trigger endoperoxide bridge opening of the sesquiterpene counterpart by Fenton-like mechanisms, leading to the formation of carbon- and oxygen-centered radicals. Usually, this in cell formation of single-electron reactive species seems to be responsible for the biological activity of ART and its semisynthetic and hybrid derivatives. Sequestration of Fe^2 by DFO generally reduces the efficacy of the compounds studied.
DFO was used to study the mode of action of compounds 9c, 9f, 10b, and 10f on WM266 cell line. Twenty-four hours before treatment, cells were seeded in 96-well plates and incubated overnight. Then, cells were pre-treated with 20 μM of DFO for 1 h. After this time, two washes with PBS were performed, and, subsequently, fresh medium containing different doses of the opportune compound was added for 48h. The analyses of cell viability were performed at the end of treatment, and triplicates were made in all experiments.

Data set [3] in a line: Stability by NMR analyses after heating. The note with it: after heating at 45 and 100 °C for 8 and 2 h, respectively. The data set is classed as physicochemical. How it is done: Based on cellular results, hybrids 9c, 9f, 10b, and 10f were selected for further studies. Their stability was evaluated by NMR analyses after heating them at 45 and 100 °C for 8 and 2 h, respectively (Supplementary Materials S1).

For the next data set, the system named is melanoma. The note with it: metastatic melanoma drug; cited from earlier work.
Where [4] appears, read: WM266, 24 h, metastatic melanoma WM266, MTT, 24 h treatment, triplicates, read-out: IC50 (µM ± SD) WM266.
Setting [5] is: WM266, reference hybrid on WM266, as printed in Table 2, read-out: IC50 ± SD R.H.
[6] abbreviates: WM266, pre-treated with 20 μM DFO for 1 h, read-out: IC50 ± SD WM266 with DFO.
Setting [7] is: WM266, without DFO, read-out: IC50 ± SD WM266 without DFO.

Read-outs that look alike come from different tables or passages of the source. Bounds are passed on as bounds.

The term IC50 denotes the concentration at which inhibition is half-maximal.

On to `CC(C)=CCCC(C)CCO[C@H]1O[C@@H]2O[C@@]3(C)CC[C@H]4[C@H](C)CC[C@@H]([C@H]1C)[C@@]24OO3` (stereo partly drawn) [Hybrid 9c], for which the IC50 in the data set with C3PV (Homo sapiens, C3PV, 24 h) worked out at 364 ± 7.9 µM; in the data set on WM115 (Homo sapiens, WM-115, 24 h), 2.1 ± 0.3 µM; with WM266 [1] (setting [4]) it was 1.4 ± 0.56 µM; in the data set on WM266 [1] (setting [5]), 1.4 ± 0.56 µM; in the data set with WM266 [2] (setting [6]) it was 12700 ± 300 nM; in the data set with WM266 [2] (setting [7]) it was 1400 ± 560 nM. In addition, the “TSI WM115” value in the data set with WM115 came out at 173.4. The “TSI WM266” value in the data set with WM266 [1] turned out to be 260.1. In addition, the “decomposition by 1H NMR” value in data set [3] is “less than 5%”.
For the molecule `CC(C)=CCCC(C)=CCOC1OC2OC3(C)CCC4C(C)CCC(C1C)C24OO3` (stereo not drawn) [Hybrid 9f], the concentration for half-maximal inhibition (IC50) with C3PV (Homo sapiens, C3PV, 24 h) came to 87.3 ± 2.5 µM; with WM115 (Homo sapiens, WM-115, 24 h), 3 ± 0.4 µM; in the data set on WM266 [1] (setting [4]), 1.9 ± 0.5 µM; in the data set with WM266 [1] (setting [5]), 1.9 ± 0.5 µM; in the data set on WM266 [2] (setting [6]), 132700 ± 400 nM; with WM266 [2] (setting [7]), 1900 ± 500 nM. The “TSI WM115” value with WM115 is on record as 29.1. For the same molecule, the “TSI WM266” value in the data set on WM266 [1] worked out at 45.9. In data set [3], the “decomposition by 1H NMR” value was “less than 5%”.
In the case of `C=C(C)C1CC=C(COC(=O)CCC(=O)OC2OC3OC4(C)CCC5C(C)CCC(C2C)C35OO4)CC1` (stereo not drawn) [Hybrid 10b], the concentration for half-maximal inhibition (IC50) is 20.3 ± 5.5 µM in the data set on C3PV (Homo sapiens, C3PV, 24 h); 0.03 ± 0.01 µM with WM115 (Homo sapiens, WM-115, 24 h); 0.02 ± 0.01 µM in the data set with WM266 [1] (setting [4]); 0.02 ± 0.01 µM in the data set with WM266 [1] (setting [5]); 310 ± 100 nM in the data set with WM266 [2] (setting [6]); 20 ± 10 nM with WM266 [2] (setting [7]). For the same molecule, the “TSI WM115” value in the data set with WM115 is 676.7. The “TSI WM266” value with WM266 [1] was found to be 1015.0. The “decomposition by 1H NMR” value in data set [3] is “less than 5%”.
As to `CC(C)=CCCC(C)=CCOC(=O)CCC(=O)OC1OC2OC3(C)CCC4C(C)CCC(C1C)C24OO3` (stereo not drawn) [Hybrid 10f], the half-inhibitory concentration (IC50) with C3PV was 7.9 ± 4.5 µM; with WM115 it was 0.4 ± 0.04 µM; in the data set on WM266 [1] (setting [5]), 0.09 ± 0.03 µM; in the data set with WM266 [2] (setting [6]), 500 ± 100 nM; in the data set on WM266 [2] (setting [7]) it was 90 ± 30 nM. Moreover, the “TSI WM115” value in the data set on WM115 stood at 19.8. In the data set with WM266 [1], the “TSI WM266” value was 87.8. For the same molecule, the “decomposition by 1H NMR” value in data set [3] is recorded as “less than 5%”.
Turning to `Cn1nnc2c(C(N)=O)ncn2c1=O` [temozolomide], the IC50 in the data set on melanoma is less than 50000 nM.

These data come from PMC11279807, “Modulation of the Antimelanoma Activity Imparted to Artemisinin Hybrids by the Monoterpene Counterpart” (Molecules, 2024).
